Experiment [1] can be described thus: Antiproliferative activity against human HCT15 cells measured after 72 hrs by CCK8 assay. Type of experiment: functional, cell-based. Particulars: HCT-15, 72 h.
The nature of experiment [2]: Cell cycle arrest in human T47D cells assessed as accumulation at G2/M phase at 1 uM after 24 hrs by DAPI staining-based cell analyzer (reference value: 15%). Type of experiment: functional.
A short description of experiment [3]: Cell cycle arrest in human T47D cells assessed as accumulation at S phase at 0.5 uM after 24 hrs by DAPI staining-based cell analyzer (reference value: 26%). Type of experiment: functional.
The nature of experiment [4]: Cell cycle arrest in human HCT15 cells assessed as accumulation at G2/M phase after 20 hrs by DAPI staining-based cell analyzer. Type of experiment: functional. The conditions noted are these: HCT-15.
The nature of experiment [5]: Cell cycle arrest in human HCT15 cells assessed as accumulation at S phase at 1 uM after 20 hrs by DAPI staining-based cell analyzer (reference value: 34%). Particulars: HCT-15. Type of experiment: functional.
Experiment [6] can be described thus: Cell cycle arrest in human T47D cells assessed as accumulation at G1 phase at 0.5 uM after 24 hrs by DAPI staining-based cell analyzer (reference value: 51%). Type of experiment: functional.
A short description of experiment [7]: Cell cycle arrest in human HCT15 cells assessed as accumulation at G2/M phase at 1 uM after 20 hrs by DAPI staining-based cell analyzer (reference value: 13%). Particulars: HCT-15. Type of experiment: functional.
The nature of experiment [8]: Antiproliferative activity against human DU145 cells measured after 72 hrs by CCK8 assay. Type of experiment: functional, cell-based. Particulars: DU-145, 72 h. In general terms: Tetrazolium assays rely on reduction of a dye to a coloured formazan, in cell work by metabolically active cells.
Experiment [9] can be described thus: Cell cycle arrest in human T47D cells assessed as accumulation at S phase at 1 uM after 24 hrs by DAPI staining-based cell analyzer (reference value: 26%). Type of experiment: functional.
A short description of experiment [10]: Antiproliferative activity against human T47D cells measured after 72 hrs by CCK8 assay. Type of experiment: functional, cell-based.
Experiment [11] addresses DNA topoisomerase 2-alpha (Homo sapiens) (UniProt P11388). The experiment in a line: Poison activity at topoisomerase-2 alpha in human HCT15 cells assessed as DNA damage by measuring DNA tail length at 10 uM measured after 24 hrs by alkaline comet assay. Type of experiment: cell-based. Particulars: HCT-15.
Experiment [12] is described as follows: Antiproliferative activity against human MCF7 cells measured after 72 hrs by CCK8 assay. Type of experiment: functional, cell-based. Particulars: MCF7, 72 h.
Experiment [13] is described as follows: Cell cycle arrest in human HCT15 cells assessed as accumulation at G2/M phase at 0.5 uM after 20 hrs by DAPI staining-based cell analyzer (reference value: 13%). The conditions noted are these: HCT-15. Type of experiment: functional.
Experiment [14] is described as follows: Cell cycle arrest in human HCT15 cells assessed as accumulation at G1 phase at 0.5 uM after 20 hrs by DAPI staining-based cell analyzer (reference value: 40%). The conditions noted are these: HCT-15. Type of experiment: functional.
The nature of experiment [15]: Cell cycle arrest in human T47D cells assessed as accumulation at G2/M phase at 0.5 uM after 24 hrs by DAPI staining-based cell analyzer (reference value: 13%). Type of experiment: functional.
A short description of experiment [16]: Cell cycle arrest in human HCT15 cells assessed as accumulation at S phase at 0.5 uM after 20 hrs by DAPI staining-based cell analyzer (reference value: 34%). Particulars: HCT-15. Type of experiment: functional.
Experiment [17] deals with DNA topoisomerase 2-alpha (Homo sapiens) (UniProt P11388). Briefly: Poison activity at topoisomerase-2 alpha in human HCT15 cells assessed as DNA damage by measuring DNA tail length at 5 uM measured after 24 hrs by alkaline comet assay. Type of experiment: cell-based. Particulars: HCT-15.
DNA topoisomerase 2-alpha (Homo sapiens), sequence (P11388 whole entry): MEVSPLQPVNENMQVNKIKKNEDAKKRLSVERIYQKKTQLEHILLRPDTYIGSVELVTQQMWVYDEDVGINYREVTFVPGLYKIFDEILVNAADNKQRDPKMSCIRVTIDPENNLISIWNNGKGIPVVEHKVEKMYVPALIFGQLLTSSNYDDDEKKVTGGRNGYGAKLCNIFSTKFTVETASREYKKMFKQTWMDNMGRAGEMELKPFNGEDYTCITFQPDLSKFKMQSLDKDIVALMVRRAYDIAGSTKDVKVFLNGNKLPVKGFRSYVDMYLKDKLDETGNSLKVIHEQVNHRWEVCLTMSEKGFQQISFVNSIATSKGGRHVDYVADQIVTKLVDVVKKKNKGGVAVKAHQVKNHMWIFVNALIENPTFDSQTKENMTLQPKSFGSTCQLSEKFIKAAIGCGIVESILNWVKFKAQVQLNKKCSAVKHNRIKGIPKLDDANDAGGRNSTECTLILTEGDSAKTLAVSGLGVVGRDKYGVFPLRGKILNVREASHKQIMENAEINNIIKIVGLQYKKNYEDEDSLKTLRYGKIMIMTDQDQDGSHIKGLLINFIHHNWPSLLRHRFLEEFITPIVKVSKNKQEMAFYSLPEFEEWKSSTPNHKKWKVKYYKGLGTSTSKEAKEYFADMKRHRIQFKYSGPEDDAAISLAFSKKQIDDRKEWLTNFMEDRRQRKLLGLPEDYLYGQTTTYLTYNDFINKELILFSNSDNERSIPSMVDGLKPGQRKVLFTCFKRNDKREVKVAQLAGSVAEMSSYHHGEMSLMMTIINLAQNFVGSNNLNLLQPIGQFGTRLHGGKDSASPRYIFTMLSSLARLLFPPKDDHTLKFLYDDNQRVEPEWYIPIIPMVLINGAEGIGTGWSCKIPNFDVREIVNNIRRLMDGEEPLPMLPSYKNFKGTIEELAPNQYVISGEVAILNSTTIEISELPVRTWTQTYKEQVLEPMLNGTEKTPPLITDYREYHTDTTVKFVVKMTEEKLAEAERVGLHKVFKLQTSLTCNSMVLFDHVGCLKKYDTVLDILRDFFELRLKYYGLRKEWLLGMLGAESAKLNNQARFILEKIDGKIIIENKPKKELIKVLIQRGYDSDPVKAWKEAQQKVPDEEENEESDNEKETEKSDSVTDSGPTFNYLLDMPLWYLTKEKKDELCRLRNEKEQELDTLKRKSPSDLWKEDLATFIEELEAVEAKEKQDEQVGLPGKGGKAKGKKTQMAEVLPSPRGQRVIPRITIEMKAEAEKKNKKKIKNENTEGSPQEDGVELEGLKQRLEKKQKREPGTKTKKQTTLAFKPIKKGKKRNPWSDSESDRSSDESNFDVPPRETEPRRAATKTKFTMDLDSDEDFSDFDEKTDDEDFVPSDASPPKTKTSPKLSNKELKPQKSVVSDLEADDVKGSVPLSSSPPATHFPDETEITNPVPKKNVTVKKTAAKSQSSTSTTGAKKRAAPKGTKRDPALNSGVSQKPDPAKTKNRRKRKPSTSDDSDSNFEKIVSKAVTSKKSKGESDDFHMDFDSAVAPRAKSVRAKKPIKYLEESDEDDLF
Experiment [18] is described as follows: Cell cycle arrest in human T47D cells assessed as accumulation at G2/M phase after 24 hrs by DAPI staining-based cell analyzer. Type of experiment: functional.
Experiment [19] is described as follows: Cell cycle arrest in human HCT15 cells assessed as accumulation at G1 phase at 1 uM after 20 hrs by DAPI staining-based cell analyzer (reference value: 40%). Type of experiment: functional. The conditions noted are these: HCT-15.
Experiment [20] addresses DNA topoisomerase 2-alpha (Homo sapiens) (UniProt P11388). The experiment in a line: Poison activity at topoisomerase-2 alpha in human T47D cells assessed as DNA damage by measuring DNA tail length at 5 uM measured after 24 hrs by alkaline comet assay. Type of experiment: cell-based.
The target is the same in experiment [21]. Briefly: Poison activity at topoisomerase-2 alpha in human T47D cells assessed as DNA damage by measuring DNA tail length at 10 uM measured after 24 hrs by alkaline comet assay. Type of experiment: cell-based.
A short description of experiment [22]: Cell cycle arrest in human T47D cells assessed as accumulation at G1 phase at 1 uM after 24 hrs by DAPI staining-based cell analyzer (reference value: 51%). Type of experiment: functional.

For orientation: IC50 means the concentration at which inhibition is half-maximal.

Consider `COc1cc([C@@H]2c3cc4c(cc3[C@@H](O[C@@H]3O[C@@H]5CO[C@@H](C)O[C@H]5[C@H](O)[C@H]3O)[C@H]3COC(=O)[C@H]23)OCO4)cc(OC)c1O` [ETOPOSIDE], for which the IC50 in [1] turned out to be 1.27 µM; in experiment [8], 2.19 µM; in [10] it was 4.85 µM; in [12], 35.6 µM. Also, the Activity was 33% in [2]; 24% in [3]; “Dose-dependent effect” in [4]; 25% in [5]; 39% in experiment [6]; 32% in experiment [7]. Besides, the Activity in experiment [9] was determined as 22%; in experiment [11] it was 46.3 pixel; in experiment [13] it was 29%; in experiment [14], 21%; in experiment [15] it was 31%; in experiment [16] it was 26%. For the same compound, the Activity in [17] was 37.5 pixel; in [18], “Dose-dependent effect”; in experiment [19] it was 17%; in [20] it was 62.7 pixel; in experiment [21], 66.2 pixel; in experiment [22] it was 35%.
